According to US5280015A, “2-substituted adenosines and 2-substituted adenosine 5'-carboxamides” (priority 1990, dated 1994):
Where “and” joins values, the source holds several entries; their conditions need not be identical. Identical values can stand only once. Counter-ions that a name gives are not always drawn. Like-named read-outs stand apart in the source and are kept apart here.

What was measured:
A2-adenosine receptors [1] = assay: Competitive binding assay in bovine brain using 125I-PAPA-APEC (striatal membranes); settings: for Ki (A1)/K1 (A2): ratio of Ki at A1-receptors (rat) versus Ki in the 125I-PAPA-APEC assay (bovine)
Experimental: (§1) The filters were washed with three×3 ml aliquots of pH 7.2 buffer containing 50 mM HEPES, 10 mM Mg^+2, and 0.05% CHAPS. The filters were placed in polypropylene tubes and counted in a Packard gamma counter.

A1-adenosine receptors = target: T1, A1-adenosine receptors (Rattus norvegicus, UniProt P25099); assay: Competitive binding assay at A1-adenosine receptors, rat cerebral cortex membranes ([3H]PIA or [3H]CHA)
T1 construct: rat cerebral cortex membranes; from tissue; host or cells: rat cerebral cortex membranes
T1 sequence (P25099 1-326): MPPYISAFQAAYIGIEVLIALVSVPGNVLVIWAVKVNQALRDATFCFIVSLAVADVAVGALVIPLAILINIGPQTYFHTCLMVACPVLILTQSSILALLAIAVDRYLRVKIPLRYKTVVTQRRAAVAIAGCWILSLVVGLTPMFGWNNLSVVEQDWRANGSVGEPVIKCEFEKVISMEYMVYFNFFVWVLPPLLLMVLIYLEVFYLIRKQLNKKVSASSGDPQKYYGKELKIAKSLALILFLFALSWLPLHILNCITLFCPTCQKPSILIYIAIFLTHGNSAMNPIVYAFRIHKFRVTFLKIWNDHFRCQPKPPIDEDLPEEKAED

A2 adenosine receptors = A2 adenosine receptors (Bos taurus, UniProt E1BKU0); assay: Competitive binding assay in bovine brain using 125I-PAPA-APEC (striatal membranes); design: Bovine striatal membranes; from tissue; host or cells: bovine (calf) striatal membranes
Sequence of A2 adenosine receptors (E1BKU0 1-401): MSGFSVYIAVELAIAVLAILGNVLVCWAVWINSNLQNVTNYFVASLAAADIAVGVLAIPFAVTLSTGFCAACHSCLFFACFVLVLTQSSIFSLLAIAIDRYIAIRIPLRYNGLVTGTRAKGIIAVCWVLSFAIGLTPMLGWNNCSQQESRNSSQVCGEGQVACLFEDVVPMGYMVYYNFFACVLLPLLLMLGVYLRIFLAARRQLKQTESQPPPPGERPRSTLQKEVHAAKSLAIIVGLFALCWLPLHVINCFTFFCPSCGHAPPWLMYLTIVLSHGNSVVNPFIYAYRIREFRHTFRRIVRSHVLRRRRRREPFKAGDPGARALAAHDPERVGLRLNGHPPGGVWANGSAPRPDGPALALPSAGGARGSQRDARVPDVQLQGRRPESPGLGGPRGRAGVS
Experimental: as §1

A2-adenosine receptors [2] = target: T2, A2-adenosine receptors (Rattus norvegicus, UniProt P30543); assay: Inhibition of binding of [3H]CGS21680 to A2-adenosine receptors in rat striatal membranes
T2 construct: rat striatal membranes; from tissue; host or cells: rat striatal membranes
T2 sequence (P30543 whole entry): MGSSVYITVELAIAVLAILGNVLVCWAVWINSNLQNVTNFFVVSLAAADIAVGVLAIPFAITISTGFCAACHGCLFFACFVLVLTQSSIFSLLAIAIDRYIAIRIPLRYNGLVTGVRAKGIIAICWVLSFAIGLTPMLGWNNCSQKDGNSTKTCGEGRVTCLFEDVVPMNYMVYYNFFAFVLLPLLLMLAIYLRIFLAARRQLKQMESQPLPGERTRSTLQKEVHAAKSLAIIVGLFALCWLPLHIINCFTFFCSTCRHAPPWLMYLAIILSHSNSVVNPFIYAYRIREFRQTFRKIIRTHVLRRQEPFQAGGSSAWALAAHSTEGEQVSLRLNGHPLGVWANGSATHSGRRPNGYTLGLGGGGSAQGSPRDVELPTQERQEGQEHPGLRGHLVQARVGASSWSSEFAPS
Experimental: (§2) Stock solutions of representative compounds of the present invention in the millimolar concentration range in dimethylsulfoxide were prepared for the binding assays. […] Protein was determined using the BCA (based on the complex with cuprous ions and bicinchoninic acid) protein assay reagents purchased from Pierce Chemical Co., Rockford, Ill.
The membrane suspension was then centrifuged at 37,000×g for 20 min at 4° C. The pellet was resuspended in buffer containing 2 IU/ml adenosine deaminase, Type VI from calf intestinal mucosa (Sigma, St. Louis, Mo.) to 20 mg/ml original tissue weight and incubated at 37° C. for 30 min. The membrane homogenate was recentrifuged as before, and the pellet was stored frozen at -70° C. until use.
For competitive binding assays using [^3 H]CGS21680, a volume of 1 ml was used in each 13×100 mm glass tube. […] The mixture was incubated with shaking for 90 min at 24° C. The samples were filtered on a Brandel Cell Harvester (Brandel, Gaithersburg, Md.) with Whatman GF/B filters, and washed rapidly twice with 5 ml of ice cold 50 mM Tris, pH 7.4. Each filter disc was added to 4 ml of scintillation fluid, vortexed, and counted after 6 hours.

[3] = tested on: locomotor activity in NIH mice; assay: Locomotor depression by A2 adenosine agonists in mice (Digiscan activity monitor); assay type: in vivo, mouse; settings: for reversal of APEC locomotor depression by antagonist: antagonist injected before APEC, 8-cyclopentyltheophylline 10 mg/kg; for locomotor depression (% decrease in horizontal activity from vehicle control) / ED50: ip; for ED50: Mus musculus, read-out: ED50, locomotor depression
A2-adenosine receptors [4] = target: T2, A2-adenosine receptors; assay: Inhibition of binding of [3H]NECA to A2-adenosine receptors in rat striatal membranes
Experimental: as §2
N^6 -Cyclopentyladenosine was present at 50 nM to inhibit binding of the ligand at A1 -adenosine receptors.

human platelets = assay: Increase in cyclic AMP in human platelets; assay type: cell-based; settings: for activation at 1 µM: Platelet, read-out: increase in the level of cyclic AMP
[5] = rat, [3H]PIA, read-out: Ki, inhibition of binding of [3H]PIA at A1-receptors
[6] = bovine striatum; 11, 12 and 14: apparent Ki; read-out: Ki, inhibition of binding of 125I-PAPA-APEC at A2-receptors
[7] = read-out: Ki, inhibition of binding of [3H]CGS21680 at A2-receptors
[8] = rat, [3H]N6-cyclohexyladenosine (footnote c), read-out: Ki, inhibition of binding at A1-receptors using [3H]N6-cyclohexyladenosine
[9] = bovine brain A2; relative to compounds with Ki less than 10 nM
[10] = rat striatum, 11, 12 and 14: apparent Ki, read-out: Ki, inhibition of binding of [3H]CGS21680 at A2-receptors
[11] = Ki, inhibition of binding of 125I-PAPA-APEC at A2-receptors, bovine striatum; 11, 12 and 14: apparent Ki

Compound | Ki (A1)/K1 (A2) (A2-adenosine receptors [1]) | Ki (A1-adenosine receptors; [5]) | Ki (A2 adenosine receptors; [6]) | Ki (A2-adenosine receptors [2]; [7]) | other results
CCCn1c(=O)c2[nH]c(C3CCCC3)nc2n(CCC)c1=S [8-cyclopentyl-1,3-dipropyl-2-thioxanthine] |  |  |  |  | reversal of APEC locomotor depression by antagonist ([3]; mice): not
CCNC(=O)[C@H]1O[C@@H](n2cnc3c(N)nc(NCCc4ccc(CCC(=O)NCCNC(=S)NC5CC(C)(C)N([O])C(C)(C)C5)cc4)nc32)[C@H](O)[C@@H]1O [Compound 15] |  |  |  |  | Ki (A1-adenosine receptors; read-out: Ki, inhibition of binding at A1-receptors using [3H]N6-cyclohexyladenosine, rat, [3H]N6-cyclohexyladenosine (footnote c)): 177 ± 38 nM; Ki (A2 adenosine receptors; read-out: Ki, inhibition of binding of 125I-PAPA-APEC at A2-receptors; bovine striatum; 11, 12 and 14: apparent Ki): 14.8 ± 3.6 nM; Ki (A2-adenosine receptors [2]; read-out: Ki, inhibition of binding of [3H]CGS21680 at A2-receptors, rat striatum, 11, 12 and 14: apparent Ki): 27 ± 3 nM
CCNC(=O)[C@H]1O[C@@H](n2cnc3c(N)nc(NCCc4ccc(CCC(=O)NCCCCNC(=O)c5ccc(CF)cc5)cc4)nc32)[C@H](O)[C@@H]1O [Compound 16] | 57 | 1450 ± 67 nM | 25.4 ± 7.6 nM | 18.9 ± 4.9 nM | potency in displacing 125I-PAPA-APEC binding (A2 adenosine receptors; [9]): less potent; locomotor depression (% decrease in horizontal activity from vehicle control) ([3]; […]): 50±4%
OC[C@H]1O[C@@H](n2cnc3c(NC4CCCCC4)ncnc32)[C@H](O)[C@@H]1O [CHA, N^6 -cyclohexyladenosine] |  |  |  |  | ED50 ([3]; mice, i.p., from dose response curves): 0.06 mg/kg; reversal of agonist-elicited locomotor depression by A1-selective antagonists ([3]; mice, agonist with A1-selective antagonists): reversed by A1 -selective antagonists
CCNC(=O)[C@H]1O[C@@H](n2cnc3c(N)nc(NCCc4ccc(CCC(=O)NCCNC(=S)Nc5ccc(S(=O)(=O)O)cc5)cc4)nc32)[C@H](O)[C@@H]1O [Compound 13, 2-[4-[2-[2-[4-(Sulfophenylthioureidyl)]-ethylaminocarbonyl]ethyl]phenyl]ethylamino]-5'-N-ethylcarboxamidoadenosine sodium salt] | 347 | 3780 ± 800 nM | 10.9 ± 2.3 nM |  | selectivity for A2 receptors (A2-adenosine receptors [1]; A2 versus A1): more than 200 fold; Ki (A2-adenosine receptors [2]; [10]): 26 ± 10 nM; locomotor depression (% decrease in horizontal activity from vehicle control) ([3]; mouse, in vivo): 41±5%
CCNC(=O)[C@H]1O[C@@H](n2cnc3c(N)nc(NCCc4ccc(CCC(=O)NCCNC(=S)Nc5ccc(N=C=S)cc5)cc4)nc32)[C@H](O)[C@@H]1O [Compound 12] | 39 |  |  |  | Ki (A1-adenosine receptors): 276 ± 75 nM; Ki (A2 adenosine receptors; [11]): < 10 nM and 7.1 nM; Ki (A2-adenosine receptors [2]): 35 ± 10 nM
Cn1c(=O)c2[nH]cnc2n(C)c1=O [theophylline] |  |  |  |  | total distance traveled restored, % of control ([3]; antagonist 10 mg/kg, at the ED50 dose of APEC, mice): 95±12 % of control; reversal of APEC locomotor depression by antagonist ([3]; mice): reversible by theophylline
CCNC(=O)[C@H]1O[C@@H](n2cnc3c(N)ncnc32)[C@H](O)[C@@H]1O [NECA, 5'-N-ethylcarboxamidoadenosine, reference compound] |  |  |  |  | activation at 1 µM (human platelets; Homo sapiens): 35%; ED50 [3]: 0.002 mg/kg
CCNC(=O)[C@H]1O[C@@H](n2cnc3c(N)nc(NCCc4ccc(CCC(=O)NCCN)cc4)nc32)[C@H](O)[C@@H]1O [Compound 3] | 16 | 235 ± 54 nM | < 10 nM and 6.1 nM | 12 ± 3 nM | Ki (A2-adenosine receptors [4]; read-out: Ki, inhibition of binding of [3H]NECA at A2-receptors, rat striatum, 11, 12 and 14: apparent Ki): 5.73 ± 0.52 nM; ED50 [3]: 0.016 mg/kg; locomotor depression ([3]; mice, i.p., horizontal activity and total distance traveled): potent locomotor depressant in mice in a dose-dependent manner
CCNC(=O)[C@H]1O[C@@H](n2cnc3c(N)nc(NCCc4ccc(CCC(=O)NCCNC(=O)Cc5ccc(NC(=O)OCc6ccccc6)cc5)cc4)nc32)[C@H](O)[C@@H]1O [Compound 7] | 45 | 278 ± 18.7 nM | < 10 nM and 6.2 nM | 37 ± 5 nM | Ki (A2-adenosine receptors [4]): 5.59 ± 0.99 nM
CCNC(=O)[C@H]1O[C@@H](n2cnc3c(N)nc(NCCc4ccc(CCC(=O)NCCNC(=S)Nc5cccc(N=C=S)c5)cc4)nc32)[C@H](O)[C@@H]1O [Compound 11] | 11 |  |  |  | Ki (A2-adenosine receptors [4]): 2.82 ± 0.38 nM; Ki (A1-adenosine receptors): 69.7 ± 7.9 nM; Ki (A2 adenosine receptors; [11]): < 10 nM and 6.2 nM; Ki (A2-adenosine receptors [2]): 22 ± 7 nM
Cn1c(=O)c2[nH]c(C3CCCC3)nc2n(C)c1=O [8-cyclopentyltheophylline] |  |  |  |  | reversal of APEC locomotor depression by antagonist ([3]; mice): not
NCCNC(=O)Cc1ccc(NC(=O)Cc2ccc(Nc3ncnc4c3ncn4[C@@H]3O[C@H](CO)[C@@H](O)[C@H]3O)cc2)cc1 [ADAC, reference compound] |  |  |  |  | Ki (A2-adenosine receptors [4]): 210 nM; Ki (A2-adenosine receptors [2]): 218 ± 28 nM

Now from value to compound, other results behind:

Ki (A1)/K1 (A2) (A2-adenosine receptors [1]) | Ki (A1-adenosine receptors; [5]) | Ki (A2 adenosine receptors; [6]) | Ki (A2-adenosine receptors [2]; [7]) | Compound | other results
125 | 1980 ± 102 nM | 15.8 ± 4.8 nM | 69.7 nM | CCNC(=O)[C@H]1O[C@@H](n2cnc3c(N)nc(NCCc4ccc(CCC(=O)NCCNC(=O)CBr)cc4)nc32)[C@H](O)[C@@H]1O [Compound 14] | 
72 |  | 13.2 ± 1.5 nM | 13 ± 4 nM | CCNC(=O)[C@H]1O[C@@H](n2cnc3c(N)nc(NCCc4ccc(CCC(=O)NCCNC(=O)CCc5ccc(O)cc5)cc4)nc32)[C@H](O)[C@@H]1O [Compound 4] | Ki (A1-adenosine receptors; [8]): 950 ± 100 nM; locomotor depression (% decrease in horizontal activity from vehicle control) ([3]; mouse, in vivo): 44±7%
370 |  | < 10 nM and 6.1 nM | 5 ± 2 nM | CCNC(=O)[C@H]1O[C@@H](n2cnc3c(N)nc(NCCc4ccc(CCC(=O)OC)cc4)nc32)[C@H](O)[C@@H]1O [Compound 2] | Ki (A2-adenosine receptors [4]): 17.5 ± 1.6 nM; Ki (A1-adenosine receptors; [8]): 2260 ± 440 nM
31 | 1340 nM | 43 ± 14 nM | 28 ± 7 nM | CCNC(=O)[C@H]1O[C@@H](n2cnc3c(N)nc(NCCc4ccc(CCC(=O)NCCNC(=O)Cc5ccc(N)cc5)cc4)nc32)[C@H](O)[C@@H]1O [Compound 6] | activation at 1 µM (human platelets; human platelets, 10^-6 M): 40%; increase in cyclic AMP (human platelets; human platelets, 1 nM to 10 μM): dose dependent increase in cyclic AMP; potency in displacing 125I-PAPA-APEC binding (A2 adenosine receptors; [9]): less potent
66 |  | 21.3 ± 7.9 nM | 15 ± 1 nM | CCNC(=O)[C@H]1O[C@@H](n2cnc3c(N)nc(NCCc4ccc(CCC(=O)NCCNC(=O)Cc5cccs5)cc4)nc32)[C@H](O)[C@@H]1O [Compound 5] | Ki (A1-adenosine receptors; [8]): 1400 ± 100 nM; locomotor depression (% decrease in horizontal activity from vehicle control) ([3]; mouse, in vivo): 49±9%
78 |  | < 10 nM and 8.7 nM | 12 ± 2 nM | CCNC(=O)[C@H]1O[C@@H](n2cnc3c(N)nc(NCCc4ccc(CCC(=O)NCCNC(=O)c5cccc(NC(=O)OCc6ccccc6)c5)cc4)nc32)[C@H](O)[C@@H]1O [Compound 9] | Ki (A1-adenosine receptors; [8]): 680 ± 110 nM
 |  | 31.6 ± 1.3 nM |  | CCNC(=O)[C@H]1O[C@@H](n2cnc3c(N)nc(NCCc4ccc(CCC(=O)NCCNc5ccc([N+](=O)[O-])c6nonc56)cc4)nc32)[C@H](O)[C@@H]1O [Compound 17] | affinity at A2-adenosine receptors (A2-adenosine receptors [1]; fluorescent probes, derivatives in general): high affinity
31 | 1340 ± 28 nM | 43.6 ± 5.2 nM |  | CCNC(=O)[C@H]1O[C@@H](n2cnc3c(N)nc(NCCc4ccc(CCC(=O)NCCNC(=O)c5cccc(N)c5)cc4)nc32)[C@H](O)[C@@H]1O [Compound 8] | potency in displacing 125I-PAPA-APEC binding (A2 adenosine receptors; [9]): less potent; Ki (A2-adenosine receptors [2]; [10]): 16.5 ± 2.8 nM
> 350 |  | 14.3 ± 3.3 nM | 55 ± 30 nM | CCNC(=O)[C@H]1O[C@@H](n2cnc3c(N)nc(NCCc4ccc(CCC(=O)NCCNC(=O)CCCC[C@@H]5SC[C@@H]6NC(=O)N[C@@H]65)cc4)nc32)[C@H](O)[C@@H]1O [Compound 10] | Ki (A1-adenosine receptors; [8]): > 5000 nM
